Laboratory results as given in patent publication US6365621B1, “Remedies or preventives for intractable epilepsy” (Pharmaceutical Co., Ltd., priority 1998, dated 2002).

Test system: kainate-induced amygdala seizures
Test: Local cerebral glucose metabolism during kainate-induced amygdala seizures ([14C]deoxyglucose autoradiography)
Type: in vivo, rat
Parameters: key to Effect on local cerebral glucose metabolism rate: → : no change; →↓ : decreased in a low degree; ↓ : decreased in a moderate degree; ↓↓ : decreased in a high degree
Settings: for Local glucose metabolism rate: average ± standard error
Description: [Method for measuring cerebral glucose metabolism] Cannulas for injection of kainic acid were inserted in an assigned position of the left side of the amygdala of 18 Wistar male rats and fixed through the same procedure as described in Example I-1. Seven days after operation, polyethylene catheters were set and fixed to the femoral artery and vein of one side under halothane anesthesion, and the lower half of the body of each rat were put in plaster so as to prevent removal of the catheter. Upon awakening from narcotism, the same kainic acid solution as described in I-1 (1 μL) was injected through the cannula so as to induce seizures. After elapse of 90 minutes from injection of kainic acid, when limbic system seizures were in status epilepticus, 50, 100, or 200 mg/kg of nefiracetam was intravenously injected, whereas saline was injected into rats of the control group. After 60 minutes, 25 μCi of [^14C] deoxyglucose was intravenously injected. After the tracer was injected, blood was continuously collected from the artery for 45 minutes. When collection was finished, heads were cut off. Brains were extirpated immediately and instantly frozen in by hexane (−25° C.) cooled by dry ice. The frozen brain was sliced in a cryostat (−20° C.) so as to produce coronary, serial-frozen sections having a thickness of 20 μm. Subsequently, the sections were dried and put on high-speed X-ray film with a [^14C] standard, followed by seven-day-exposure in a cassette to thereby obtain an autoradiogram. The blood samples collected from the artery were centrifuged so as to collect plasma, the [^14C] radioactivity was measured by use of a liquid scintillation counter, and glucose concentration in plasma was measured.
The optical density of the intracerebral structure of each section was measured from the autoradiogram by use of a densitometer, and a glucose utilization rate of each intracerabral structure was calculated by use of the formula of Sokoloff (Sokoloff, L., Reivich, M., Kennedy, C., et al., J. Neurochemistry, 28: 897-916, 1977) based on [^14C] radioactivity and glucose concentration in plasma. The obtained data were compared quantitatively and statistically with those of the control group, through the Mann-Whitney U-test.

[1] = Occipital lobe cortex, non-focal side, 100 mg/kg i.v.
[2] = Parietal lobe cortex, focal side, 100 mg/kg i.v.
[3] = Parietal lobe cortex, non-focal side, 100 mg/kg i.v.
[4] = Sensorimotor area cortex, focal side, 100 mg/kg i.v.
[5] = Sensorimotor area cortex, non-focal side, 100 mg/kg i.v.
[6] = Septal area, focal side, 100 mg/kg i.v.
[7] = Septal area, non-focal side, 100 mg/kg i.v.
[8] = Substantia nigra, focal side, 100 mg/kg i.v.
[9] = Substantia nigra, non-focal side, 100 mg/kg i.v.
[10] = Temporal lobe cortex, focal side, 100 mg/kg i.v.
[11] = Temporal lobe cortex, non-focal side, 100 mg/kg i.v.
[12] = Thalamus, focal side, 100 mg/kg i.v.
[13] = Thalamus, non-focal side, 100 mg/kg i.v.
[14] = hippocampus, focal side, 100 mg/kg i.v.
[15] = hippocampus, non-focal side, 100 mg/kg i.v.

Cc1cccc(C)c1NC(=O)CN1CCCC1=O [nefiracetam, N-(2,6-dimethylphenyl)-2-(2-oxo-1-pyrrolidinyl)acetamide]
67.8 ± 3.5 µmol/100 g/min: Local glucose metabolism rate [11]
109 ± 10.6 µmol/100 g/min: Local glucose metabolism rate [2]
77.6 ± 6.8 µmol/100 g/min: Local glucose metabolism rate [8]
73.4 ± 4.7 µmol/100 g/min: Local glucose metabolism rate [5]
117 ± 22.7 µmol/100 g/min: Local glucose metabolism rate [6]
184 ± 7.1 µmol/100 g/min: Local glucose metabolism rate [14]
56.9 ± 3.3 µmol/100 g/min: Local glucose metabolism rate [7]
↓: Effect on local cerebral glucose metabolism rate (Occipital lobe cortex, focal side, 200 mg/kg i.v.) | Effect on local cerebral glucose metabolism rate (Occipital lobe cortex, non-focal side, 200 mg/kg i.v.) | Effect on local cerebral glucose metabolism rate (Parietal lobe cortex, focal side, 200 mg/kg i.v.) | Effect on local cerebral glucose metabolism rate (Parietal lobe cortex, non-focal side, 200 mg/kg i.v.) | Effect on local cerebral glucose metabolism rate (Sensorimotor area cortex, focal side, 200 mg/kg i.v.) | Effect on local cerebral glucose metabolism rate [5] | Effect on local cerebral glucose metabolism rate (Sensorimotor area cortex, non-focal side, 200 mg/kg i.v.) | Effect on local cerebral glucose metabolism rate [6] | Effect on local cerebral glucose metabolism rate [8] | Effect on local cerebral glucose metabolism rate (Substantia nigra, focal side, 200 mg/kg i.v.) | Effect on local cerebral glucose metabolism rate [9] | Effect on local cerebral glucose metabolism rate (Substantia nigra, non-focal side, 200 mg/kg i.v.) | Effect on local cerebral glucose metabolism rate (Temporal lobe cortex, focal side, 200 mg/kg i.v.) | Effect on local cerebral glucose metabolism rate [11] | Effect on local cerebral glucose metabolism rate (Temporal lobe cortex, non-focal side, 200 mg/kg i.v.) | Effect on local cerebral glucose metabolism rate [12] | Effect on local cerebral glucose metabolism rate (Thalamus, non-focal side, 50 mg/kg i.v.) | Effect on local cerebral glucose metabolism rate [14] | Effect on local cerebral glucose metabolism rate (hippocampus, non-focal side, 50 mg/kg i.v.)
90.5 ± 3.8 µmol/100 g/min: Local glucose metabolism rate [12]
↓↓: Effect on local cerebral glucose metabolism rate (Septal area, focal side, 200 mg/kg i.v.) | Effect on local cerebral glucose metabolism rate [7] | Effect on local cerebral glucose metabolism rate (Septal area, non-focal side, 200 mg/kg i.v.) | Effect on local cerebral glucose metabolism rate (Thalamus, focal side, 200 mg/kg i.v.) | Effect on local cerebral glucose metabolism rate [13] | Effect on local cerebral glucose metabolism rate (Thalamus, non-focal side, 200 mg/kg i.v.) | Effect on local cerebral glucose metabolism rate (hippocampus, focal side, 200 mg/kg i.v.) | Effect on local cerebral glucose metabolism rate [15] | Effect on local cerebral glucose metabolism rate (hippocampus, non-focal side, 200 mg/kg i.v.)
45.9 ± 2.7 µmol/100 g/min: Local glucose metabolism rate [9]
72.1 ± 4.9 µmol/100 g/min: Local glucose metabolism rate [3]
78.6 ± 5.8 µmol/100 g/min: Local glucose metabolism rate [1]
→↓: Effect on local cerebral glucose metabolism rate [1] | Effect on local cerebral glucose metabolism rate [2] | Effect on local cerebral glucose metabolism rate [3] | Effect on local cerebral glucose metabolism rate [10] | Effect on local cerebral glucose metabolism rate (hippocampus, focal side, 50 mg/kg i.v.)
103 ± 6.2 µmol/100 g/min: Local glucose metabolism rate [10]
139 ± 9 µmol/100 g/min: Local glucose metabolism rate [4]
87.2 ± 8.9 µmol/100 g/min: Local glucose metabolism rate [15]
→: Effect on local cerebral glucose metabolism rate (Occipital lobe cortex, non-focal side, 50 mg/kg i.v.) | Effect on local cerebral glucose metabolism rate (Parietal lobe cortex, focal side, 50 mg/kg i.v.) | Effect on local cerebral glucose metabolism rate (Parietal lobe cortex, non-focal side, 50 mg/kg i.v.) | Effect on local cerebral glucose metabolism rate (Sensorimotor area cortex, focal side, 50 mg/kg i.v.) | Effect on local cerebral glucose metabolism rate [4] | Effect on local cerebral glucose metabolism rate (Sensorimotor area cortex, non-focal side, 50 mg/kg i.v.) | Effect on local cerebral glucose metabolism rate (Septal area, focal side, 50 mg/kg i.v.) | Effect on local cerebral glucose metabolism rate (Septal area, non-focal side, 50 mg/kg i.v.) | Effect on local cerebral glucose metabolism rate (Substantia nigra, focal side, 50 mg/kg i.v.) | Effect on local cerebral glucose metabolism rate (Substantia nigra, non-focal side, 50 mg/kg i.v.) | Effect on local cerebral glucose metabolism rate (Temporal lobe cortex, focal side, 50 mg/kg i.v.) | Effect on local cerebral glucose metabolism rate (Temporal lobe cortex, non-focal side, 50 mg/kg i.v.) | Effect on local cerebral glucose metabolism rate (Thalamus, focal side, 50 mg/kg i.v.)
72.3 ± 2.8 µmol/100 g/min: Local glucose metabolism rate [13]
